System: K562 CRISPRi cells
Assay: Perturb-seq pooled growth measurement (sgRNA counts, growth phenotype γ, relative activity)
Type: cell-based, human
Conditions: sequencing read counts; for Perturb-seq pooled growth sgRNA counts, d5: 5 days of growth (day seven after transduction); for Perturb-seq pooled growth sgRNA counts, d10: 10 days of growth (day twelve after transduction); for Perturb-seq pooled growth sgRNA counts, T0: T0 = day two after transduction
Excerpt: Finally, we sought to use intermediate-activity sgRNAs to explore relationships between expression levels of various genes and the resulting cellular phenotypes. To simultaneously measure gene expression levels and obtain rich phenotypes for a variety of sgRNA series, we used Perturb-seq, an experimental strategy that enables matched capture of the transcriptome and the identity of an expressed sgRNA for each individual cell in pools of cells (27, 31-33) (FIG. 12A). […] In addition to the single-cell transcriptomes, we measured bulk growth phenotypes conferred by sgRNAs in these cells.
To measure the growth rate defects conferred by each sgRNA for comparison with the transcriptional phenotypes, samples of 500,000 transduced cells were taken from the same transduced cell population used in the Perturb-seq experiment on days two, seven, and twelve after transduction. Genomic DNA was extracted using the Nucleospin Blood kit (Macherey-Nagel) and sgRNA amplicons were prepared as described previously and above (19), albeit with no genomic DNA digestion or gel purification, and sequenced on HiSeq 4000 as described above for the other screens. Growth phenotypes were calculated by comparing normalized sgRNA abundances at day seven and twelve to those at day two, as described above. […] Relative sgRNA activities measured at day seven (five days of growth) were used to assign sgRNA activities in further analysis.

| Substance | Perturb-seq pooled growth sgRNA counts, d5 | Perturb-seq pooled growth sgRNA counts, d10 | Perturb-seq pooled growth sgRNA counts, T0 |
| --- | --- | --- | --- |
| CAD_+_27440280.23-P1P2_06: sgRNA targeting CAD, GGCTGGAGAGTAGCCGGGCG, SEQ ID NO: 104 (listed as DNA, chemistry not fully specified) | 4967 | 4365 | 6199 |
| CAD_+_27440280.23-P1P2_07: sgRNA targeting CAD, GGCTGGAGCGAAGCCGGGCG, SEQ ID NO: 103 (listed as DNA, chemistry not fully specified) | 6008 | 4019 | 13241 |
| CAD_+_27440280.23-P1P2_13: sgRNA targeting CAD, GGCTGGAGAGAAGCCTGGCG, SEQ ID NO: 105 (listed as DNA, chemistry not fully specified) | 17097 | 19130 | 11874 |
| CDC23_−_137548987.23-P1P2_00: sgRNA targeting CDC23, GACAGCCACCGGGACCATGG, SEQ ID NO: 18 (listed as DNA, chemistry not fully specified) | 757 | 854 | 8182 |
| CDC23_−_137548987.23-P1P2_02: sgRNA targeting CDC23, GACAGCTACCGGGACCATGG, SEQ ID NO: 98 (listed as DNA, chemistry not fully specified) | 832 | 1192 | 7014 |
| CDC23_−_137548987.23-P1P2_04: sgRNA targeting CDC23, GACAGCCAACGGGACCATGG, SEQ ID NO: 100 (listed as DNA, chemistry not fully specified) | 1646 | 1646 | 8019 |
| CDC23_−_137548987.23-P1P2_08: sgRNA targeting CDC23, GACAGCCATCGGGACCATGG, SEQ ID NO: 99 (listed as DNA, chemistry not fully specified) | 1531 | 1710 | 8986 |
| CDC23_−_137548987.23-P1P2_11: sgRNA targeting CDC23, GACAGCCACCGGGACCACGG, SEQ ID NO: 101 (listed as DNA, chemistry not fully specified) | 14320 | 16682 | 12707 |
| COX11_+_53045977.23-P1P2_00: sgRNA targeting COX11, GGCTCTGGCGTCCTGGATGG, SEQ ID NO: 141 (listed as DNA, chemistry not fully specified) | 11785 | 6198 | 8084 |
| COX11_+_53045977.23-P1P2_03: sgRNA targeting COX11, GGCTCTGTCGTCCTGGATGG, SEQ ID NO: 142 (listed as DNA, chemistry not fully specified) | 16852 | 9184 | 11251 |
| COX11_+_53045977.23-P1P2_04: sgRNA targeting COX11, GGCTCTGGCGCCCTGGATGG, SEQ ID NO: 143 (listed as DNA, chemistry not fully specified) | 8343 | 5047 | 5234 |
| COX11_+_53045977.23-P1P2_05: sgRNA targeting COX11, GGCTCTGGCGTCTTGGATGG, SEQ ID NO: 144 (listed as DNA, chemistry not fully specified) | 10766 | 11496 | 5205 |
| COX11_+_53045977.23-P1P2_10: sgRNA targeting COX11, GGCTCTGGCGTCCCGGATGG, SEQ ID NO: 145 (listed as DNA, chemistry not fully specified) | 8887 | 11271 | 5206 |
| DBR1_+_137893744.23-P1P2_00: sgRNA targeting DBR1, GTTTGCAGGAGTCTACACCC, SEQ ID NO: 78 (listed as DNA, chemistry not fully specified) | 9171 | 3583 | 13446 |
| DBR1_+_137893744.23-P1P2_01: sgRNA targeting DBR1, GATTGCAGGAGTCTACACCC, SEQ ID NO: 79 (listed as DNA, chemistry not fully specified) | 5512 | 1824 | 9446 |
| DBR1_+_137893744.23-P1P2_05: sgRNA targeting DBR1, GTTTGCAGGAGTGTACACCC, SEQ ID NO: 81 (listed as DNA, chemistry not fully specified) | 6705 | 4748 | 6569 |
| DBR1_+_137893744.23-P1P2_07: sgRNA targeting DBR1, GTTTGCAGGGGTCTACACCC, SEQ ID NO: 80 (listed as DNA, chemistry not fully specified) | 4894 | 2550 | 8500 |
| DBR1_+_137893744.23-P1P2_08: sgRNA targeting DBR1, GTTTGCAGTAGTCTACACCC, SEQ ID NO: 82 (listed as DNA, chemistry not fully specified) | 11651 | 15989 | 5326 |
| DUT_+_48624411.23-P1P2_00: sgRNA targeting DUT, GCGAGCGAGGAGACCACCGG, SEQ ID NO: 110 (listed as DNA, chemistry not fully specified) | 3755 | 1570 | 14025 |
| DUT_+_48624411.23-P1P2_01: sgRNA targeting DUT, GCCAGCGAGGAGACCACCGG, SEQ ID NO: 111 (listed as DNA, chemistry not fully specified) | 6764 | 3576 | 25227 |
| DUT_+_48624411.23-P1P2_07: sgRNA targeting DUT, GCGAGCGAGGAGCCCACCGG, SEQ ID NO: 113 (listed as DNA, chemistry not fully specified) | 1509 | 1157 | 4601 |
| DUT_+_48624411.23-P1P2_08: sgRNA targeting DUT, GCGAGCGAGGAGGCCACCGG, SEQ ID NO: 112 (listed as DNA, chemistry not fully specified) | 4351 | 2392 | 15356 |
| DUT_+_48624411.23-P1P2_10: sgRNA targeting DUT, GCGAGCGAGGAGACCAACGG, SEQ ID NO: 114 (listed as DNA, chemistry not fully specified) | 5403 | 4466 | 6538 |
| EIF2S1_−_67827080.23-P1P2_00: sgRNA targeting EIF2S1, GAGCGAAGCGCACGCTGAGG, SEQ ID NO: 136 (listed as DNA, chemistry not fully specified) | 1123 | 1318 | 5718 |
| EIF2S1_−_67827080.23-P1P2_01: sgRNA targeting EIF2S1, GAGCGAAACGCACGCTGAGG, SEQ ID NO: 139 (listed as DNA, chemistry not fully specified) | 3799 | 4065 | 5433 |
| EIF2S1_−_67827080.23-P1P2_02: sgRNA targeting EIF2S1, GAGCGCAGCGCACGCTGAGG, SEQ ID NO: 138 (listed as DNA, chemistry not fully specified) | 2570 | 2582 | 8035 |
| EIF2S1_−_67827080.23-P1P2_06: sgRNA targeting EIF2S1, GAGCGAAGCGCGCGCTGAGG, SEQ ID NO: 137 (listed as DNA, chemistry not fully specified) | 1718 | 2436 | 4549 |
| EIF2S1_−_67827080.23-P1P2_07: sgRNA targeting EIF2S1, GAGCGAAGCGCTCGCTGAGG, SEQ ID NO: 140 (listed as DNA, chemistry not fully specified) | 13281 | 22309 | 6931 |

From patent US20220259593A1, “CONTROL OF MAMMALIAN GENE DOSAGE USING CRISPR” (The Regents of the University of California, priority 2019, published 2022)
